Measurements as given in patent publication US4018786A, “2-Aminothiazolines and a process for preparation thereof” (Centre d'Etudes pour l'Industrie Pharmaceutique, priority 1974, dated 1977).
Counter-ions that a name gives are not always drawn.

Assays:
[1] = Propyl-thiouracil test (hypocholesterolemic action); type: in vivo, rats
Procedure: a. Propyl-thiouracil test (RANNEY et Coll. J. Pharmacol. Exper. Therap. 1963, 142, 132-136)
The administration of propyl-thiouracil to adult rats renders them hypercholesterolemic; in effect, the plasmatic cholesterol rate has increased by about 15%. The testing is carried out on two groups of rats, the control group receiving the propyl-thiouracil only whilst the treated group also receives 100 mg/kg of the compounds to be tested, by the oral route.
On the 11th day of the experiment, the blood samples are taken and the β-lipoproteins, the free cholesterol and the total cholesterol measured.
a. Propyl-thiouracil test (Ranney et Coll. J. Pharmacol. Exper. Therap. 1963, 142, 132-136)
This test has shown the clearly favourable action of the derivatives according to the invention, at a dose of […].

[2] = system: carrageenin-induced oedema; experiment: Localised carrageenin-induced oedema method (anti-inflammatory action); type: in vivo, rat; details: for reduction of the inflammatory reaction, 1st hour / reduction of the inflammatory reaction, 2nd hour / reduction of the inflammatory reaction, 3rd hour / reduction of the inflammatory reaction, 4th hour / reduction of the inflammatory reaction, 5th hour: 50 mg/kg oral; for percentage of anti-inflammatory activity, First Hour / percentage of anti-inflammatory activity, Second Hour / percentage of anti-inflammatory activity, Third Hour / percentage of anti-inflammatory activity, Fifth Hour: 100 mg/kg oral per administration, rat; for percentage of anti-inflammatory activity, First Hour: 1 hour after carrageenin; for percentage of anti-inflammatory activity, Second Hour: 2 hours after carrageenin; for percentage of anti-inflammatory activity, Third Hour: 3 hours after carrageenin; for percentage of anti-inflammatory activity, Fifth Hour: 5 hours after carrageenin
Procedure: a. Localised carrageenin-induced oedema method
A 1% solution of carrageenin (0.1 ml) is injected into the metatarsal flexor muscles of the right hand rear paw of the rat at time "0".
The animals of the treated group also receive, by the oral route, 100 mg/kg of the compound to be tested, respectively 1 hour before and at the same time as the injection of the phlogogenic agent, then 1 hour and 21/2 hours after. The measurements made with the aid of a micrometer at the time "0" and 1 hour, 2 hours, 3 hours and 5 hours after the administration of the carrageenin, enable one to determine, in relation to time, the percentage of anti-inflammatory activity in relation to the control group.
a. method of localised carrageenin-induced oedema
The oral administration of […] of the derivatives to be tested produces a clear reduction of the inflammatory reaction provoked.

[3] = Triton test (hypocholesterolemic action); type: in vivo, rat; details: for reduction of free cholesterol and total cholesterol levels: 50 mg/kg oral; for reduction of free cholesterol and of total cholesterol: 100 mg/kg oral, rat, 18 hours after Triton
Procedure: The intravenous injection of Triton W-R 1339 (an alkylaryl polyetheralcohol sold by Rohm and Haas) enables one to artifically increase, in the rat, certain lipidic fractions of serum and thus to evalute the hypocholesterolemic action of the compounds of the invention. […]
Eighteen hours later a blood sample is taken and the β-lipoproteins, the free cholesterol and the cholesterol are determined.
This test, which enables one to evaluate the hypocholesterolemic action of the derivatives to be tested, on serum levels of certain lipid fractions, has shown the remarkable effect of the compounds according to the invention.

[4] = LD50/24 hours by the method of Miller & Tainter, intravenous route (derivatives 34 to 38, species not restated); details: in vivo, read-out: LD50 /24 hours /kg of body weight
[5] = system: ovalbumin-induced oedema; experiment: Generalised ovalbumin-induced oedema method (anti-inflammatory action); type: in vivo, rats; details: for percentage of reduction of oedematic reaction, 1st hour / percentage of reduction of oedematic reaction, 2nd hour: 50 mg/kg oral; for percentage of decrease of the oedematic reaction, Second Hour / percentage of decrease of the oedematic reaction, Third Hour: 100 mg oral, rats
Procedure: b. Generalised ovalbumin-induced oedema method
A simultaneous intraperitoneal injection of 1 ml of ovalbumin and of 0.5 ml of an aqueous solution of Evans Blue at 1 ml per thousand by weight is administered to rats.
For comparative purposes, 100 mg of the compound to be tested is administered orally to the animals of the group to be treated, 1 hour before and at the same time as the ovalbumin. The intensity of the phenomenon thus provoked in noted by a FIG. 1 to 5 according to the intensity of the inflammatory syndrome.
Thus one determines the average of the oedematic intensity and the percentage of decrease of the oedematic reaction in relation to the control animals.
b. method of generalised ovalbumin-induced oedema
The percentages of reduction of oedematic reaction, in the test animals, in subjects treated by the oral route by the administration of […] of the compound to be tested show the clear anti-inflammatory action of the compounds according to the invention.

[6] = LD50/24 h by the method of Miller & Tainter, intravenous route, mice; details: mouse, in vivo, read-out: LD50 /24 h/kg of body weight
[7] = 100 mg/kg oral, rats, 11th day, control 0.20 g/l
[8] = 100 mg/kg oral, rats, 11th day, control 0.86 g/l

Structure (SMILES)	Free cholesterol ([1]; 50 mg/kg, control 0.25)	Total cholesterol ([1]; 50 mg/kg, control 0.89)	reduction of the inflammatory reaction, 1st hour [2]	reduction of the inflammatory reaction, 2nd hour [2]	reduction of the inflammatory reaction, 3rd hour [2]	reduction of the inflammatory reaction, 4th hour [2]	reduction of the inflammatory reaction, 5th hour [2]	reduction of free cholesterol and total cholesterol levels [3] [%]	LD50 at 24 h [4] [mg/kg]	percentage of reduction of oedematic reaction, 1st hour [5] [%]	percentage of reduction of oedematic reaction, 2nd hour [5] [%]	LD50 at 24 h [6] [mg/kg]	other results
Clc1ccccc1N1CCN(CC=C2CN=C(NC3CCCCC3)S2)CC1 [Derivative No. 37, 5-[4-β-(orthochlorophenyl)piperazinoethylidene]2-cyclohexylamino Δ^2-thiazoline]	0.10	0.60	38	43	48	52	57	~41	57	60	68		
CCN(CC)CC=C1CN=C(N2CCOCC2)S1 [Derivative No. 14, 5-β-diethylaminoethylidene 2-morpholino Δ^2-thiazoline oxalate]												105	
CCN(CC)CC=C1CN=C(N(CC)C2CCCCC2)S1 [Derivative No. 10, 5-(β-diethylaminoethylidene) 2-N-ethyl N-cyclohexylamino) Δ^2-thiazoline oxalate]													percentage of anti-inflammatory activity, First Hour [2]: 44%; percentage of anti-inflammatory activity, Second Hour [2]: 47%; percentage of anti-inflammatory activity, Third Hour [2]: 52%; percentage of anti-inflammatory activity, Fifth Hour [2]: 56%; percentage of decrease of the oedematic reaction, Second Hour [5]: 57%; percentage of decrease of the oedematic reaction, Third Hour [5]: 64%
CCN(CC)CC=C1CN=C(NCC(O)c2ccccc2)S1 (stereo not drawn) [Derivative No. 4, 2-β-hydroxyphenethylamino 5-(N-diethylaminoethylidene) Δ^2-thiazoline]													percentage of anti-inflammatory activity, First Hour [2]: 39%; percentage of anti-inflammatory activity, Second Hour [2]: 40%; percentage of anti-inflammatory activity, Third Hour [2]: 49%; percentage of anti-inflammatory activity, Fifth Hour [2]: 53%; percentage of decrease of the oedematic reaction, Second Hour [5]: 59%; percentage of decrease of the oedematic reaction, Third Hour [5]: 65%
CCN(CC)CC=C1CN=C(N(CC)CC)S1 [Derivative No. 15, 2-diethylamino 5-(2-diethylaminoethylidene) Δ^2-thiazoline dioxalate]													Free cholesterol [1, 7]: 0.12 g/L; Total cholesterol [1, 8]: 0.58 g/L; reduction of free cholesterol and of total cholesterol [3]: ~22%
CCN(CC)CCc1cnc(N(C)C2CCCCC2)s1 [Derivative No. 22, 5-β-diethylaminoethyl 2-(N-methyl N-cyclohexylamino)-thiazole dioxalate]													percentage of anti-inflammatory activity, First Hour [2]: 42%; percentage of anti-inflammatory activity, Second Hour [2]: 46%; percentage of anti-inflammatory activity, Third Hour [2]: 54%; percentage of anti-inflammatory activity, Fifth Hour [2]: 56%; percentage of decrease of the oedematic reaction, Second Hour [5]: 52%; percentage of decrease of the oedematic reaction, Third Hour [5]: 60%
C(CN1CCN(c2ccccc2)CC1)=C1CN=C(NC2CCCCC2)S1 [Derivative No. 35, 2-cyclohexylamino 5-[4-β-(phenyl)piperazinoethylidene] Δ^2-thiazoline]	0.11	0.61	45	46	55	57	58	~29	48	62	65		
CCN(CC)CCC1CN=C(NC2CCCCC2)S1 (stereo not drawn) [Derivative No. 3, 2-cyclohexlamino 5-β-diethylaminoethyl Δ^2-thiazoline]													percentage of anti-inflammatory activity, First Hour [2]: 37%; percentage of anti-inflammatory activity, Second Hour [2]: 39%; percentage of anti-inflammatory activity, Third Hour [2]: 46%; percentage of anti-inflammatory activity, Fifth Hour [2]: 48%; percentage of decrease of the oedematic reaction, Second Hour [5]: 54%; percentage of decrease of the oedematic reaction, Third Hour [5]: 60%
FC(F)(F)c1cccc(N2CCN(CC=C3CN=C(NC4CCCCC4)S3)CC2)c1 [Derivative No. 36]	0.13	0.63	46	50	59	61	62	~27	65	55	61		
Clc1ccc(N2CCN(CC=C3CN=C(NC4CCCCC4)S3)CC2)cc1 [Derivative No. 34, 5-[4-β-(parachlorophenyl)piperazinoethylidene] 2-cyclohexylamino Δ^2-thiazoline]	0.13	0.55	40	44	50	53	55	~34	35	58	62		
CCCCNc1ncc(CCN(CC)CC)s1 [Derivative No. 9, 2-butylamino 5-β-diethylaminoethyl thiazole dihydrochloride]													Free cholesterol [1, 7]: 0.15 g/L; Total cholesterol [1, 8]: 0.58 g/L; reduction of free cholesterol and of total cholesterol [3]: ~24%
CCN(CC)CC=C1CN=C(NC(C)(C)CC(C)(C)C)S1 [Derivative No. 18, 5-(β-diethylaminoethylidene) 2-(1,1,3,3-tetramethyl-butyl-amino) Δ^2-thiazoline]												45	
CCN(CC)CC=C1CN=C(N2CCN(C)CC2)S1 [Derivative No. 12, 5-(2-diethylaminoethylidene) 2-(4-methyl 1-piperazinyl) Δ^2-thiazoline tetrahydrochloride]												90	Free cholesterol [1, 7]: 0.15 g/L; Total cholesterol [1, 8]: 0.61 g/L; reduction of free cholesterol and of total cholesterol [3]: ~26%
CCN(CC)CC=C1CN=C(NC)S1 [Derivative No. 21, 5-(β-diethylaminoethylidene) 2-methylamino Δ^2-thiazoline oxalate]												92	
CCN(CC)CC=C1CN=C(NC2CCCCC2)S1 [Derivative No. 1, 2-cyclohexylamino 5-β-diethylaminoethylidene Δ^2-thiazoline]												42	Free cholesterol [1, 7]: 0.14 g/L; Total cholesterol [1, 8]: 0.60 g/L; reduction of free cholesterol and of total cholesterol [3]: ~28%
COc1ccc(N2CCN(CC=C3CN=C(NC4CCCCC4)S3)CC2)cc1 [Derivative No. 38, 2-cyclohexylamino 5-[4-β-(paramethoxyphenyl)piperazinoethylidene] Δ^2-thiazoline]	0.09 g/L	0.58	49	53	56	60	61	~44	52	64	70		
